Test results as given in patent US20080287549A1, “METHODS AND MATERIALS FOR CONTROLLING RODENT POPULATIONS” (priority 2007, published 2008).

Legend:
[1] = test system: Serum testosterone; experiment: Serum testosterone in male rats after 7 days of treatment (direct RIA); assay type: in vivo; details: 7 consecutive days; for Effect on serum testosterone levels compared to the control group: 0.2-20 mg/kg; for Average Decrease in Serum Testosterone Level (%): pre- vs post-treatment
Description: (§1) Male rats were given increasing doses (control=0 mg/kg, low=0.2 mg/kg, medium=2 mg/kg and high=20 mg/kg) of clomiphene, trans-clomiphene or cis-clomiphene for 7 consecutive days. Treatment was followed by a 7-day washout period. Serum testosterone levels and body weight were tested pre-treatment and post-treatment. Serum testosterone levels were analyzed by direct radioimmunoassay (RIA).
(§2) There were significant and unexpected decreases in serum testosterone and body weight among all treatment groups. […] There was a significant loss in both body weight and total serum testosterone with clomiphene that was dose-dependent.

[2] = test system: FSH, LH, testosterone; details: cited from earlier work
[3] = Body weight in male rats after 7 days of treatment; assay type: in vivo; details: 7 consecutive days; for Effect on body weight compared to the control group: 0.2-20 mg/kg; for Average Loss of Body Weight: pre- vs post-treatment
Description: as §1, §2

[4] = Ernst et al.; cited from earlier work
[5] = cited from earlier work
[6] = Long-term low-dose study: mean body weight in male and female rats; assay type: in vivo
Description: (§3) Twenty-eight weeks of a two-year study of the effects of low dosages of trans-clomiphene (0 mg/kg/day (control), 0.0125 mg/kg/day, 0.025 mg/kg/day and 0.05 mg/kg/day) on mean body weight and mean food consumption in age-matched male and female rats has been completed. For each group, n=60. Losses in body weight and decreases in food consumption in both male and female treatment groups (compared to control groups) have been observed in every treatment group. As the study has progressed, the losses in body weight and decreases in food consumption have become more pronounced. See Table 2 (M=male; F=female; Mean Body weight is in grams; Mean Food consumption is in grams/animal/day; and dosages are of trans-clomiphene in mg/kg/day).

[7] = Long-term low-dose study: mean food consumption in male and female rats; assay type: in vivo
Description: as §3

[8] = female rats, 0.0125 mg/kg/day, Week 2
[9] = female rats, 0.0125 mg/kg/day, Week 6
[10] = female rats, 0.0125 mg/kg/day, Week 10
[11] = female rats, 0.0125 mg/kg/day, Week 14
[12] = female rats, 0.0125 mg/kg/day, Week 18
[13] = female rats, 0.0125 mg/kg/day, Week 22
[14] = female rats, 0.0125 mg/kg/day, Week 26
[15] = female rats, 0.0125 mg/kg/day, Week 28
[16] = female rats, 0.025 mg/kg/day, Week 2
[17] = female rats, 0.025 mg/kg/day, Week 6
[18] = female rats, 0.025 mg/kg/day, Week 10
[19] = female rats, 0.025 mg/kg/day, Week 14
[20] = female rats, 0.025 mg/kg/day, Week 18
[21] = female rats, 0.025 mg/kg/day, Week 22
[22] = female rats, 0.025 mg/kg/day, Week 26
[23] = female rats, 0.025 mg/kg/day, Week 28
[24] = female rats, 0.05 mg/kg/day, Week 2
[25] = female rats, 0.05 mg/kg/day, Week 6
[26] = female rats, 0.05 mg/kg/day, Week 10
[27] = female rats, 0.05 mg/kg/day, Week 14
[28] = female rats, 0.05 mg/kg/day, Week 18
[29] = female rats, 0.05 mg/kg/day, Week 22
[30] = female rats, 0.05 mg/kg/day, Week 26
[31] = female rats, 0.05 mg/kg/day, Week 28
[32] = male rats, 0.0125 mg/kg/day, Week 2
[33] = male rats, 0.0125 mg/kg/day, Week 6
[34] = male rats, 0.0125 mg/kg/day, Week 10
[35] = male rats, 0.0125 mg/kg/day, Week 14
[36] = male rats, 0.0125 mg/kg/day, Week 18
[37] = male rats, 0.0125 mg/kg/day, Week 22
[38] = male rats, 0.0125 mg/kg/day, Week 26
[39] = male rats, 0.0125 mg/kg/day, Week 28
[40] = male rats, 0.025 mg/kg/day, Week 2
[41] = male rats, 0.025 mg/kg/day, Week 6
[42] = male rats, 0.025 mg/kg/day, Week 10
[43] = male rats, 0.025 mg/kg/day, Week 14
[44] = male rats, 0.025 mg/kg/day, Week 18
[45] = male rats, 0.025 mg/kg/day, Week 22
[46] = male rats, 0.025 mg/kg/day, Week 26
[47] = male rats, 0.025 mg/kg/day, Week 28
[48] = male rats, 0.05 mg/kg/day, Week 2
[49] = male rats, 0.05 mg/kg/day, Week 6
[50] = male rats, 0.05 mg/kg/day, Week 10
[51] = male rats, 0.05 mg/kg/day, Week 14
[52] = male rats, 0.05 mg/kg/day, Week 18
[53] = male rats, 0.05 mg/kg/day, Week 22
[54] = male rats, 0.05 mg/kg/day, Week 26
[55] = male rats, 0.05 mg/kg/day, Week 28

With `CCN(CC)CCOc1ccc(C(=C(Cl)c2ccccc2)c2ccccc2)cc1` [Clomiphene, clomiphene] the “Effect on serum testosterone levels compared to the control group” value [1] was “significantly and statistically lowered serum testosterone levels”, the “Average Decrease in Serum Testosterone Level (%)” value (shortened to “Average Decrease … (%)”) ([1]; high=20 mg/kg) was 89.7% and the “Average Decrease … (%)” value ([1]; low=0.2 mg/kg) was 65.2%. The “Average Decrease … (%)” value ([1]; medium=2 mg/kg) was 83.5%, the “LH, FSH, and testosterone” value ([2]; after 2 months of treatment (Guay et al.)) was “increase” and the “free and total testosterone” value ([2]; men after treatment (Tenover et al.)) was “increases”. The “FSH, LH” value ([2]; young and old men after treatment (Tenover et al.)) was “increases”, the “Effect on body weight compared to the control group” value [3] was “caused a loss in body weight” and the “Average Loss of Body Weight” value ([3]; high=20 mg/kg) was 69 g. For the same compound, the “Average Loss of Body Weight” value ([3]; low=0.2 mg/kg) was 24 g and the “Average Loss of Body Weight” value ([3]; medium=2 mg/kg) was 41 g.

In the case of `CCN(CC)CCOc1ccc(/C(=C(/Cl)c2ccccc2)c2ccccc2)cc1` [Cis-clomiphene, cis-clomiphene], the “estrogenic / antiestrogenic activity” value [4] is listed as “more potent and more estrogenic form”, the “Effect on serum testosterone levels compared to the control group” value [1] is listed as “significantly and statistically lowered serum testosterone levels” and the “Average Decrease … (%)” value ([1]; low=0.2 mg/kg) is listed as 68.1%. For the same compound, the “Average Decrease … (%)” value ([1]; medium=2 mg/kg) was 99.3%, the “time for which significant blood level is detectable” value ([5]; following a single dose of clomiphene citrate) was “in excess of one month” and the in vivo clearance [5] was “clears slowly”. The “Effect on body weight compared to the control group” value [3] was “caused a loss in body weight”, the “Average Loss of Body Weight” value ([3]; high=20 mg/kg) was 75 g and the “Average Loss of Body Weight” value ([3]; low=0.2 mg/kg) was 32 g. For the same compound, the “Average Loss of Body Weight” value ([3]; medium=2 mg/kg) was 54 g.

For `CCN(CC)CCOc1ccc(/C(=C(\Cl)c2ccccc2)c2ccccc2)cc1` [Trans-clomiphene, trans-clomiphene], the “Mean Body weight” value [6, 8] was 225.1 grams, the “Mean Body weight” value [6, 9] was 269.0 grams and the “Mean Body weight” value [6, 10] was 280.3 grams. For the same compound, the “Mean Body weight” value [6, 11] was 291.8 grams, the “Mean Body weight” value [6, 12] was 300.8 grams and the “Mean Body weight” value [6, 13] was 309.0 grams. For the same compound, the “Mean Body weight” value [6, 14] was 318.7 grams, the “Mean Body weight” value [6, 15] was 318.4 grams and the “Mean Body weight” value [6, 16] was 220.4 grams. For the same compound, the “Mean Body weight” value [6, 17] was 257.3 grams, the “Mean Body weight” value [6, 18] was 271.8 grams and the “Mean Body weight” value [6, 19] was 281.4 grams. The “Mean Body weight” value [6, 20] was 286.9 grams, the “Mean Body weight” value [6, 21] was 294.9 grams and the “Mean Body weight” value [6, 22] was 305.5 grams. The “Mean Body weight” value [6, 23] was 304.4 grams, the “Mean Body weight” value [6, 24] was 214.4 grams and the “Mean Body weight” value [6, 25] was 245.1 grams. For the same compound, the “Mean Body weight” value [6, 26] was 260.3 grams, the “Mean Body weight” value [6, 27] was 272.3 grams and the “Mean Body weight” value [6, 28] was 278.9 grams. The “Mean Body weight” value [6, 29] was 287.7 grams, the “Mean Body weight” value [6, 30] was 296.9 grams and the “Mean Body weight” value [6, 31] was 298.3 grams. For the same compound, the “Mean Body weight” value [6, 32] was 355.5 grams, the “Mean Body weight” value [6, 33] was 467.0 grams and the “Mean Body weight” value [6, 34] was 519.0 grams. For the same compound, the “Mean Body weight” value [6, 35] was 552.1 grams, the “Mean Body weight” value [6, 36] was 572.5 grams and the “Mean Body weight” value [6, 37] was 597.8 grams. The “Mean Body weight” value [6, 38] was 619.6 grams, the “Mean Body weight” value [6, 39] was 620.2 grams and the “Mean Body weight” value [6, 40] was 347.4 grams. For the same compound, the “Mean Body weight” value [6, 41] was 447.8 grams, the “Mean Body weight” value [6, 42] was 498.0 grams and the “Mean Body weight” value [6, 43] was 527.8 grams. For the same compound, the “Mean Body weight” value [6, 44] was 543.3 grams, the “Mean Body weight” value [6, 45] was 566.3 grams and the “Mean Body weight” value [6, 46] was 590.0 grams. The “Mean Body weight” value [6, 47] was 594.2 grams, the “Mean Body weight” value [6, 48] was 335.2 grams and the “Mean Body weight” value [6, 49] was 414.1 grams. For the same compound, the “Mean Body weight” value [6, 50] was 451.7 grams, the “Mean Body weight” value [6, 51] was 480.5 grams and the “Mean Body weight” value [6, 52] was 496.9 grams. The “Mean Body weight” value [6, 53] was 518.8 grams, the “Mean Body weight” value [6, 54] was 536.8 grams and the “Mean Body weight” value [6, 55] was 542.9 grams. For the same compound, the “estrogenic / antiestrogenic activity” value [4] was “antiestrogenic”, the “Mean Food consumption” value [7, 8] was 17.1 grams/animal/day and the “Mean Food consumption” value [7, 9] was 17.4 grams/animal/day. The “Mean Food consumption” value [7, 10] was 17.5 grams/animal/day, the “Mean Food consumption” value [7, 11] was 20.0 grams/animal/day and the “Mean Food consumption” value [7, 12] was 17.5 grams/animal/day. The “Mean Food consumption” value [7, 13] was 17.8 grams/animal/day, the “Mean Food consumption” value [7, 14] was 16.9 grams/animal/day and the “Mean Food consumption” value [7, 15] was 16.4 grams/animal/day. The “Mean Food consumption” value [7, 16] was 17.3 grams/animal/day, the “Mean Food consumption” value [7, 17] was 16.7 grams/animal/day and the “Mean Food consumption” value [7, 18] was 17.8 grams/animal/day. For the same compound, the “Mean Food consumption” value [7, 19] was 18.2 grams/animal/day, the “Mean Food consumption” value [7, 20] was 16.1 grams/animal/day and the “Mean Food consumption” value [7, 21] was 17.0 grams/animal/day. The “Mean Food consumption” value [7, 22] was 16.3 grams/animal/day, the “Mean Food consumption” value [7, 23] was 15.4 grams/animal/day and the “Mean Food consumption” value [7, 24] was 16.0 grams/animal/day. For the same compound, the “Mean Food consumption” value [7, 25] was 15.8 grams/animal/day, the “Mean Food consumption” value [7, 26] was 17.4 grams/animal/day and the “Mean Food consumption” value [7, 27] was 19.0 grams/animal/day. The “Mean Food consumption” value [7, 28] was 16.4 grams/animal/day, the “Mean Food consumption” value [7, 29] was 17.5 grams/animal/day and the “Mean Food consumption” value [7, 30] was 16.3 grams/animal/day. The “Mean Food consumption” value [7, 31] was 15.3 grams/animal/day, the hypophagic effects ([7]; male and female rats, 0.0125-0.05 mg/kg/day, twenty-eight weeks) was “observed even at extremely low concentrations” and the “Mean Food consumption” value [7, 32] was 23.8 grams/animal/day. The “Mean Food consumption” value [7, 33] was 25.1 grams/animal/day, the “Mean Food consumption” value [7, 34] was 26.6 grams/animal/day and the “Mean Food consumption” value [7, 35] was 26.5 grams/animal/day. For the same compound, the “Mean Food consumption” value [7, 36] was 24.3 grams/animal/day, the “Mean Food consumption” value [7, 37] was 25.1 grams/animal/day and the “Mean Food consumption” value [7, 38] was 23.1 grams/animal/day. The “Mean Food consumption” value [7, 39] was 23.6 grams/animal/day, the “Mean Food consumption” value [7, 40] was 24.3 grams/animal/day and the “Mean Food consumption” value [7, 41] was 23.8 grams/animal/day. For the same compound, the “Mean Food consumption” value [7, 42] was 26.9 grams/animal/day, the “Mean Food consumption” value [7, 43] was 25.4 grams/animal/day and the “Mean Food consumption” value [7, 44] was 23.6 grams/animal/day. The “Mean Food consumption” value [7, 45] was 24.0 grams/animal/day, the “Mean Food consumption” value [7, 46] was 23.4 grams/animal/day and the “Mean Food consumption” value [7, 47] was 22.6 grams/animal/day. The “Mean Food consumption” value [7, 48] was 22.0 grams/animal/day, the “Mean Food consumption” value [7, 49] was 22.5 grams/animal/day and the “Mean Food consumption” value [7, 50] was 23.5 grams/animal/day. For the same compound, the “Mean Food consumption” value [7, 51] was 25.9 grams/animal/day, the “Mean Food consumption” value [7, 52] was 22.6 grams/animal/day and the “Mean Food consumption” value [7, 53] was 23.1 grams/animal/day. The “Mean Food consumption” value [7, 54] was 22.4 grams/animal/day, the “Mean Food consumption” value [7, 55] was 22.0 grams/animal/day and the “Effect on serum testosterone levels compared to the control group” value [1] was “significantly and statistically lowered serum testosterone levels”. The “Average Decrease … (%)” value ([1]; high=20 mg/kg) was 73%, the “Average Decrease … (%)” value ([1]; low=0.2 mg/kg) was 71.7% and the “Average Decrease … (%)” value ([1]; medium=2 mg/kg) was 68.3%. The in vivo clearance [5] was “rapidly cleared”, the “Effect on body weight compared to the control group” value [3] was “caused a loss in body weight” and the “Average Loss of Body Weight” value ([3]; high=20 mg/kg) was 35 g. The “Average Loss of Body Weight” value ([3]; low=0.2 mg/kg) was 34 g and the “Average Loss of Body Weight” value ([3]; medium=2 mg/kg) was 40 g.
